# Assay results as given in ChEMBL document CHEMBL4507261, “Data for DCP probe A-192621” (2021).
# Key:
# [1] = biological target: Adenosine receptor A1 (Homo sapiens) (UniProt P30542); test: A1 (h) Eurofins-Cerep binding assay; design: ligand concentration 1 nM; settings: filed as antagonist, Compound concentration 10.0 uM
# [2] = biological target: Endothelin receptor type B (Homo sapiens) (UniProt P24530); test: ETB (h) Eurofins-Cerep binding assay; settings: filed as agonist, Compound concentration 10.0 uM
# [3] = biological target: GABA-A receptor; alpha-1/beta-2/gamma-2 (Homo sapiens) (UniProt P14867+P47870+P18507); test: GABAA1 (h) (alpha1,beta2,gamma2) Eurofins-Cerep binding assay; type: protein-complex assay; design: ligand concentration 15 nM; settings: filed as agonist, Compound concentration 10.0 uM
# [4] = biological target: Mu-type opioid receptor (Homo sapiens) (UniProt P35372); test: mu (MOP) (h) Eurofins-Cerep binding assay; settings: filed as agonist, Compound concentration 10.0 uM
# [5] = biological target: Glutamate NMDA receptor (Rattus norvegicus) (UniProt P35439+Q00959+Q00960+Q00961+Q62645+Q8VHN2+Q9R1M7); test: PCP Eurofins-Cerep binding assay; type: protein-complex assay; design: ligand concentration 10 nM; settings: filed as antagonist, Compound concentration 10.0 uM
# [6] = biological target: 5-hydroxytryptamine receptor 1A (Homo sapiens) (UniProt P08908); test: 5-HT1A (h) Eurofins-Cerep binding assay; design: ligand concentration 0.5 nM; settings: filed as agonist, Compound concentration 10.0 uM
# Chain of 5-hydroxytryptamine receptor 1A (Homo sapiens) (P08908 whole entry): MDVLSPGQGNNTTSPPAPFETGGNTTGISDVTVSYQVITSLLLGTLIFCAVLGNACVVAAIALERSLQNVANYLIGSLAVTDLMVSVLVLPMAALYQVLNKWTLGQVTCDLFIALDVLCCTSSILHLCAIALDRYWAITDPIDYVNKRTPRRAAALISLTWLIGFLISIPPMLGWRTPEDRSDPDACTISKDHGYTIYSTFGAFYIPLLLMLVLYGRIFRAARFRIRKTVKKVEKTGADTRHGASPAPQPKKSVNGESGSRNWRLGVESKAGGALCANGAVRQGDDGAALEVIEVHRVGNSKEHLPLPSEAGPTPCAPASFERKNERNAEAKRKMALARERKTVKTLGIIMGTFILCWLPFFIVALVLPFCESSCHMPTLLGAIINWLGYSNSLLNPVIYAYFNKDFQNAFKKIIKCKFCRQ
# [7] = biological target: 5-hydroxytryptamine receptor 4 (Homo sapiens) (UniProt Q13639); test: 5-HT4 e (h) Eurofins-Cerep binding assay; design: ligand concentration 0.3 nM; settings: filed as antagonist, Compound concentration 10.0 uM
# [8] = biological target: Glucocorticoid receptor (Homo sapiens) (UniProt P04150); test: GR (h) Eurofins-Cerep binding assay; design: ligand concentration 1.5 nM; settings: filed as agonist, Compound concentration 10.0 uM
# [9] = biological target: Sulfonylurea receptors; K-ATP channels (Rattus norvegicus) (UniProt Q63563+P70673+Q63664+Q09429); test: KATP channel Eurofins-Cerep binding assay; type: protein-complex assay; settings: filed as antagonist, Compound concentration 10.0 uM
# [10] = biological target: Aurora kinase A (Homo sapiens) (UniProt O14965); settings: Compound concentration 1000.0 nM
# [11] = biological target: Serine/threonine-protein kinase BRSK1 (Homo sapiens) (UniProt Q8TDC3); settings: Compound concentration 1000.0 nM
# [12] = biological target: Calcium/calmodulin-dependent protein kinase type II subunit gamma (Homo sapiens) (UniProt Q13555); settings: Compound concentration 1000.0 nM
# [13] = biological target: Serine/threonine-protein kinase Chk1 (Homo sapiens) (UniProt O14757); settings: Compound concentration 1000.0 nM
# [14] = biological target: Dual specificity protein kinase CLK2 (Homo sapiens) (UniProt P49760); settings: Compound concentration 1000.0 nM
# [15] = biological target: Tyrosine-protein kinase CSK (Homo sapiens) (UniProt P41240); settings: Compound concentration 1000.0 nM
# Chain of Tyrosine-protein kinase CSK (Homo sapiens) (P41240 2-450 limits assumed): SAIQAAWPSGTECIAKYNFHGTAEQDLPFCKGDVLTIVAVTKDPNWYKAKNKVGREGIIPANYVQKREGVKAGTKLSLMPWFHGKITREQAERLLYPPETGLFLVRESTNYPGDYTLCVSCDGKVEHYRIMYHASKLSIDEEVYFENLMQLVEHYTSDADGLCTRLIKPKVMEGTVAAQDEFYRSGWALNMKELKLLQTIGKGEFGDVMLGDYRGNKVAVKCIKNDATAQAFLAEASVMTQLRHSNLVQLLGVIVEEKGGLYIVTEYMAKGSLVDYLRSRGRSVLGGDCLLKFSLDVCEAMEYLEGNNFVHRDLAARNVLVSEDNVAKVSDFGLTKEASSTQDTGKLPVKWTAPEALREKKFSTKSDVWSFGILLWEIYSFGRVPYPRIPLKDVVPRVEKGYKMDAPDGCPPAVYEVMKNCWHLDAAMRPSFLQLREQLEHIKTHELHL
# [16] = biological target: Casein kinase I isoform alpha-like (Homo sapiens) (UniProt Q8N752); settings: Compound concentration 1000.0 nM
# Chain of Casein kinase I isoform alpha-like (Homo sapiens) (Q8N752 whole entry, canonical isoform): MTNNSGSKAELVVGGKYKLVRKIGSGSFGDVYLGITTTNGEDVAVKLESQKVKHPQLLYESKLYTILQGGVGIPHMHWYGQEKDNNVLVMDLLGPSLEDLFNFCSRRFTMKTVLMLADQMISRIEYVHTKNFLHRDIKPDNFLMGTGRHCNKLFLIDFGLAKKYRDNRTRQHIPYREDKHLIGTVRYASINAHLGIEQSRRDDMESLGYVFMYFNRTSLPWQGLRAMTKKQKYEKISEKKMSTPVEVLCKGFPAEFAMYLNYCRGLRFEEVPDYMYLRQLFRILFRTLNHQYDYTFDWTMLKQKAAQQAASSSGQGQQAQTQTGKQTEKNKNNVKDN
# [17] = biological target: Casein kinase I isoform gamma-1 (Homo sapiens) (UniProt Q9HCP0); settings: Compound concentration 1000.0 nM
# Chain of Casein kinase I isoform gamma-1 (Homo sapiens) (Q9HCP0 whole entry, looked up, canonical isoform): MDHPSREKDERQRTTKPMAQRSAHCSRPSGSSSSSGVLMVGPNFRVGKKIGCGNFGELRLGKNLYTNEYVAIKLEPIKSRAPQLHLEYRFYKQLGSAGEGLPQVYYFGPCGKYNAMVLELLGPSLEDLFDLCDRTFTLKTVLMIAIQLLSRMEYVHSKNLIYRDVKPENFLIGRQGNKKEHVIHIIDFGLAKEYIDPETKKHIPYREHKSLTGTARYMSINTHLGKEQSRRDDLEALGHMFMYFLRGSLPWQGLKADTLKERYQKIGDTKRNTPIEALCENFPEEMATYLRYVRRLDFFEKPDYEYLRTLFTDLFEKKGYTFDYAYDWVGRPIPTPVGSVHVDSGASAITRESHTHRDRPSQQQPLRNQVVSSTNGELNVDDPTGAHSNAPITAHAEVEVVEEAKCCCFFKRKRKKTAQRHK
# [18] = biological target: Casein kinase II subunit alpha' (Homo sapiens) (UniProt P19784); settings: Compound concentration 1000.0 nM
# [19] = biological target: Dual specificity tyrosine-phosphorylation-regulated kinase 1A (Homo sapiens) (UniProt Q13627); settings: Compound concentration 1000.0 nM
# [20] = test system: Epidermal growth factor receptor (Homo sapiens), P00533 [UNDEFINED MUTATION]; settings: Compound concentration 1000.0 nM
# [21] = biological target: Tyrosine-protein kinase Fgr (Homo sapiens) (UniProt P09769); settings: Compound concentration 1000.0 nM
# [22] = biological target: Serine/threonine-protein kinase haspin (Homo sapiens) (UniProt Q8TF76); settings: Compound concentration 1000.0 nM
# [23] = biological target: Mitogen-activated protein kinase 9 (Homo sapiens) (UniProt P45984); settings: Compound concentration 1000.0 nM
# [24] = test system: Mast/stem cell growth factor receptor Kit (Homo sapiens), P10721 [D816V]; settings: Compound concentration 1000.0 nM
# [25] = biological target: Leukocyte tyrosine kinase receptor (Homo sapiens) (UniProt P29376); settings: Compound concentration 1000.0 nM
# [26] = biological target: MAP kinase-activated protein kinase 5 (Homo sapiens) (UniProt Q8IW41); settings: Compound concentration 1000.0 nM
# Chain of MAP kinase-activated protein kinase 5 (Homo sapiens) (Q8IW41 whole entry): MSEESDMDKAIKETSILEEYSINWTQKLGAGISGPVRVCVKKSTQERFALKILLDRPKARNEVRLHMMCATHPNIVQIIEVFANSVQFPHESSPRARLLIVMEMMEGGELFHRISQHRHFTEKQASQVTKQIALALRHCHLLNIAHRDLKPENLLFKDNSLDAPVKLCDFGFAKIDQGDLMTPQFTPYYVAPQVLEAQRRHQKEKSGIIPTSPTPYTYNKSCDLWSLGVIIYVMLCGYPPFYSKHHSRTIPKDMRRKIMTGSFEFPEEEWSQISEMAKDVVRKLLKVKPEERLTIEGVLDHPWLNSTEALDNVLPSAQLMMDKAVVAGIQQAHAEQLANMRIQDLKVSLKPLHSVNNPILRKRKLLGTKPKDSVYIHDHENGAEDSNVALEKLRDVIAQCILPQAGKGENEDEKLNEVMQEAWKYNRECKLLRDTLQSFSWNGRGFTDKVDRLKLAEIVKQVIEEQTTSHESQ
# [27] = test system: Hepatocyte growth factor receptor (Homo sapiens), P08581 [Y1235D]; settings: Compound concentration 1000.0 nM
# [28] = biological target: Macrophage-stimulating protein receptor (Homo sapiens) (UniProt Q04912); settings: Compound concentration 1000.0 nM
# [29] = biological target: Serine/threonine-protein kinase 38-like (Homo sapiens) (UniProt Q9Y2H1); settings: Compound concentration 1000.0 nM
# [30] = biological target: Serine/threonine-protein kinase Nek2 (Homo sapiens) (UniProt P51955); settings: Compound concentration 1000.0 nM
# [31] = biological target: Serine/threonine-protein kinase PAK 2 (Homo sapiens) (UniProt Q13177); settings: Compound concentration 1000.0 nM
# [32] = biological target: Phosphatidylinositol 4,5-bisphosphate 3-kinase catalytic subunit beta isoform (Homo sapiens) (UniProt P42338); settings: Compound concentration 1000.0 nM
# Chain of Phosphatidylinositol 4,5-bisphosphate 3-kinase catalytic subunit beta isoform (Homo sapiens) (P42338 whole entry, looked up, canonical isoform): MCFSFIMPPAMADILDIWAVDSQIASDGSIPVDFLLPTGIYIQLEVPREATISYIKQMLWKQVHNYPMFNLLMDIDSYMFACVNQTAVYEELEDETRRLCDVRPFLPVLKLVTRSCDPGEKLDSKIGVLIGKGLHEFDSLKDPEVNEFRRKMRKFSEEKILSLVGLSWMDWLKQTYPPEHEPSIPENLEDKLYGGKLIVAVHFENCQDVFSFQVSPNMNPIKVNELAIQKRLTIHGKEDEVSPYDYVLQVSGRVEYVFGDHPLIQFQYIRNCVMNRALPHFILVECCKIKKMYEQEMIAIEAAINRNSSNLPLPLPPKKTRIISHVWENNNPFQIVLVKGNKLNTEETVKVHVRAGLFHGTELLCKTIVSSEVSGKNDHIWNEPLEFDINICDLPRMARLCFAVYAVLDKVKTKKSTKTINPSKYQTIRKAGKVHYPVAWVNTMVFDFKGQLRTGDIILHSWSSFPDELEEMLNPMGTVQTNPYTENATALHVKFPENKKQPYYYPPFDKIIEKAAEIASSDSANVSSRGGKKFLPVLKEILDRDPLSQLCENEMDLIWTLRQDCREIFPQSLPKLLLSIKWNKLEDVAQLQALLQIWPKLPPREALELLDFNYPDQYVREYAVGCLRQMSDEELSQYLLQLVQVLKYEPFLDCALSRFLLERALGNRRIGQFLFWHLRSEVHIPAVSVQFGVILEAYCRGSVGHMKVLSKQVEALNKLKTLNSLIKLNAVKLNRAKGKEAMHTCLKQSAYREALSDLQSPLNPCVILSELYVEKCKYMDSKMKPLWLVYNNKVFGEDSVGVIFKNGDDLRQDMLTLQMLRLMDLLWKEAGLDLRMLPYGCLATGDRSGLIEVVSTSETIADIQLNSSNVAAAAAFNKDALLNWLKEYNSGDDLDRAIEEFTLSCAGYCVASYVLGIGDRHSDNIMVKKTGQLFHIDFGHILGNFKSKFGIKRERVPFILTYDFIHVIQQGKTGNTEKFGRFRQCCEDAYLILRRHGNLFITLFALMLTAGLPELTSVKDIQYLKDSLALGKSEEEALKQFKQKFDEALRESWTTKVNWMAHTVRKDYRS
# [33] = biological target: Membrane-associated tyrosine- and threonine-specific cdc2-inhibitory kinase (Homo sapiens) (UniProt Q99640); settings: Compound concentration 1000.0 nM
# Chain of Membrane-associated tyrosine- and threonine-specific cdc2-inhibitory kinase (Homo sapiens) (Q99640 whole entry): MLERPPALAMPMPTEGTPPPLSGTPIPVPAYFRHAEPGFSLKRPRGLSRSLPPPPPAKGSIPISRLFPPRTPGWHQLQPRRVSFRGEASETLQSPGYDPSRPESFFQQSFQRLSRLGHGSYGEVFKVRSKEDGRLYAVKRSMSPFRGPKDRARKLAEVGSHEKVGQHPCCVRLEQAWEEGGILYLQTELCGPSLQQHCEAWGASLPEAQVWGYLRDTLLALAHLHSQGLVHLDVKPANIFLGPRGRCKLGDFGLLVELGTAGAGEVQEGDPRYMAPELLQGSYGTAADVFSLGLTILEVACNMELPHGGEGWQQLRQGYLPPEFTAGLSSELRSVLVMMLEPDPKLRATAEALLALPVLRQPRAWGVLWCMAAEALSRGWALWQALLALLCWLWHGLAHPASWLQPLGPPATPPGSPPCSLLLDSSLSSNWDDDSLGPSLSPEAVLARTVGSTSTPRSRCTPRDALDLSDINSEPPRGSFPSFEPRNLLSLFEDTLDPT
# [34] = biological target: Protein kinase C iota type (Homo sapiens) (UniProt P41743); settings: Compound concentration 1000.0 nM
# Chain of Protein kinase C iota type (Homo sapiens) (P41743 whole entry): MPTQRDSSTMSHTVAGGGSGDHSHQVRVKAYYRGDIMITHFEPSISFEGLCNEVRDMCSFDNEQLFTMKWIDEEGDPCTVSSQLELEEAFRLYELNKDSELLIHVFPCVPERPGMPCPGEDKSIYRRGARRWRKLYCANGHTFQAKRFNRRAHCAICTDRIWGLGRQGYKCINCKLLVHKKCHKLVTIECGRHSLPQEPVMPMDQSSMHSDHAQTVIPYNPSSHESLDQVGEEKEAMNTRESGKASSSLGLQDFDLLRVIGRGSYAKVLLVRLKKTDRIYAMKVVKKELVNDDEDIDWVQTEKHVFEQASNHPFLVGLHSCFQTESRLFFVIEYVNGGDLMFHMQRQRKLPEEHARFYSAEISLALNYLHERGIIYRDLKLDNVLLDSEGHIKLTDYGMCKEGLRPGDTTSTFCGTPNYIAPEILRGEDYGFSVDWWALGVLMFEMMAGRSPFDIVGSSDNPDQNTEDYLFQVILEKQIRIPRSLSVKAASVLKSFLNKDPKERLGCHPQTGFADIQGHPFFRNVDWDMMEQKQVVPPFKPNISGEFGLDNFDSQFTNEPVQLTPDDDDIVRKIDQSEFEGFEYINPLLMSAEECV
# [35] = test system: Proto-oncogene tyrosine-protein kinase receptor Ret (Homo sapiens), P07949 [V804M]; settings: Compound concentration 1000.0 nM
# [36] = biological target: Serine/threonine-protein kinase RIO1 (Homo sapiens) (UniProt Q9BRS2); settings: Compound concentration 1000.0 nM
# [37] = biological target: Ribosomal protein S6 kinase alpha-1 (Homo sapiens) (UniProt Q15418); settings: Compound concentration 1000.0 nM
# Chain of Ribosomal protein S6 kinase alpha-1 (Homo sapiens) (Q15418 whole entry): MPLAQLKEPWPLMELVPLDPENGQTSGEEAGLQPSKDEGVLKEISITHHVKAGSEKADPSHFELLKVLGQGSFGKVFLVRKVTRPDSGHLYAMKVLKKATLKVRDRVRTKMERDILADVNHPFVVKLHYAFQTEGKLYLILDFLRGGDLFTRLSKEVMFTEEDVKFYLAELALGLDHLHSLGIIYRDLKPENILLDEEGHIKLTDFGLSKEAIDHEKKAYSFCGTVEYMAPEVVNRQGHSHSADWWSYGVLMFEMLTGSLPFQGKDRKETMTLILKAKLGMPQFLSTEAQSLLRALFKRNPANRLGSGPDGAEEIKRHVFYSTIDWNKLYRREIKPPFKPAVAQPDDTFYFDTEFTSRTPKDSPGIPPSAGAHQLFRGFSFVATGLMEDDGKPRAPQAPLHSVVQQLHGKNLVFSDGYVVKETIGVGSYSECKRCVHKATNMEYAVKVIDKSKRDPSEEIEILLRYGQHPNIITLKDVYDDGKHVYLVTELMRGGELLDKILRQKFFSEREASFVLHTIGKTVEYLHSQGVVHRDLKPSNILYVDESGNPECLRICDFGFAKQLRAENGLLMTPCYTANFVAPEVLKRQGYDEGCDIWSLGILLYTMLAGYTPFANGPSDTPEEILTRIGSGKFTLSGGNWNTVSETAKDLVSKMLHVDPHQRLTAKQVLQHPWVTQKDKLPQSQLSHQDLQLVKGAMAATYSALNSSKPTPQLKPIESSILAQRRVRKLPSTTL
# [38] = biological target: Ribosomal protein S6 kinase alpha-1 (Homo sapiens) (UniProt Q15418); settings: Compound concentration 1000.0 nM; remark: listed apart in the source
# [39] = biological target: Ribosomal protein S6 kinase alpha-2 (Homo sapiens) (UniProt Q15349); settings: Compound concentration 1000.0 nM
# [40] = biological target: Serine/threonine-protein kinase Sgk2 (Homo sapiens) (UniProt Q9HBY8); settings: Compound concentration 1000.0 nM
# [41] = biological target: STE20-like serine/threonine-protein kinase (Homo sapiens) (UniProt Q9H2G2); settings: Compound concentration 1000.0 nM
# [42] = biological target: SRSF protein kinase 2 (Homo sapiens) (UniProt P78362); settings: Compound concentration 1000.0 nM
# [43] = biological target: Mitogen-activated protein kinase kinase kinase 7 (Homo sapiens) (UniProt O43318); settings: Compound concentration 1000.0 nM
# [44] = biological target: Tyrosine-protein kinase TXK (Homo sapiens) (UniProt P42681); settings: Compound concentration 1000.0 nM
compound,measurement,setting,value
CCCOc1ccc([C@H]2[C@H](C(=O)O)[C@@H](c3ccc4c(c3)OCO4)CN2CC(=O)Nc2c(CC)cccc2CC)cc1 [A-192621],% Inhibition of Control Specific Binding (Mean n=2),[1],8.3%
same,% Inhibition of Control Specific Binding (Mean n=2),[2],94.7%
same,% Inhibition of Control Specific Binding (Mean n=2),[3],-34%
same,% Inhibition of Control Specific Binding (Mean n=2),[4],8.3%
same,% Inhibition of Control Specific Binding (Mean n=2),[5],-1.5%
same,% Inhibition of Control Specific Binding (Mean n=2),[6],-5.9%
same,% Inhibition of Control Specific Binding (Mean n=2),[7],-12.4%
same,% Inhibition of Control Specific Binding (Mean n=2),[8],7%
same,% Inhibition of Control Specific Binding (Mean n=2),[9],11.1%
same,residual activity,[10],93%
same,residual activity,[11],100%
same,residual activity,[12],95%
same,residual activity,[13],98%
same,residual activity,[14],91%
same,residual activity,[15],80%
same,residual activity,[16],92%
same,residual activity,[17],100%
same,residual activity,[18],87%
same,residual activity,[19],73%
same,residual activity,[20],100%
same,residual activity,[21],98%
same,residual activity,[22],62%
same,residual activity,[23],65%
same,residual activity,[24],92%
same,residual activity,[25],100%
same,residual activity,[26],65%
same,residual activity,[27],100%
same,residual activity,[28],86%
same,residual activity,[29],88%
same,residual activity,[30],90%
same,residual activity,[31],94%
same,residual activity,[32],73%
same,residual activity,[33],74%
same,residual activity,[34],78%
same,residual activity,[35],100%
same,residual activity,[36],86%
same,residual activity,[37],87%
same,residual activity,[38],74%
same,residual activity,[39],82%
same,residual activity,[40],54%
same,residual activity,[41],100%
same,residual activity,[42],96%
same,residual activity,[43],100%
same,residual activity,[44],85%
CCCOc1ccc([C@@H]2[C@@H](C(=O)O)[C@H](c3ccc4c(c3)OCO4)CN2CC(=O)Nc2c(CC)cccc2CC)cc1 [A-1806262],% Inhibition of Control Specific Binding (Mean n=2),[1],4.2%
same,% Inhibition of Control Specific Binding (Mean n=2),[2],96.7%
same,% Inhibition of Control Specific Binding (Mean n=2),[3],-33.6%
same,% Inhibition of Control Specific Binding (Mean n=2),[4],11.1%
same,% Inhibition of Control Specific Binding (Mean n=2),[5],0.2%
same,% Inhibition of Control Specific Binding (Mean n=2),[6],-3.8%
same,% Inhibition of Control Specific Binding (Mean n=2),[7],-13.4%
same,% Inhibition of Control Specific Binding (Mean n=2),[8],4.1%
same,% Inhibition of Control Specific Binding (Mean n=2),[9],6%
same,residual activity,[10],94%
same,residual activity,[11],100%
same,residual activity,[12],88%
same,residual activity,[13],86%
same,residual activity,[14],100%
same,residual activity,[15],91%
same,residual activity,[16],94%
same,residual activity,[17],97%
same,residual activity,[18],83%
same,residual activity,[19],86%
same,residual activity,[20],100%
same,residual activity,[21],93%
same,residual activity,[22],99%
same,residual activity,[23],80%
same,residual activity,[24],99%
same,residual activity,[25],100%
same,residual activity,[26],87%
same,residual activity,[27],99%
same,residual activity,[28],91%
same,residual activity,[29],100%
same,residual activity,[30],97%
same,residual activity,[31],100%
same,residual activity,[32],92%
same,residual activity,[33],100%
same,residual activity,[34],80%
same,residual activity,[35],94%
same,residual activity,[36],100%
same,residual activity,[37],100%
same,residual activity,[38],77%
same,residual activity,[39],81%
same,residual activity,[40],69%
same,residual activity,[41],100%
same,residual activity,[42],100%
same,residual activity,[43],97%
same,residual activity,[44],100%
